Where two headings read alike, the source gives them in different places.
Experiments:
[1] = biological target: T1, RSV ribonucleoprotein (RNP) complexes (Human respiratory syncytial virus A, UniProt P28887); test: RSV RNP assay (inhibition of RSV RNP transcription); assay type: biochemical, RSV A2; details: 90 minute incubation at 30° C., total radiolabeled transcripts
T1 construct: The supernatant (S3) fraction, containing the enriched RSV RNP complexes, was collected; endogenous in cells; host or cells: HEp-2 cells infected with RSV A2; detergent-extracted crude S3 fraction
T1 sequence (P28887 whole entry): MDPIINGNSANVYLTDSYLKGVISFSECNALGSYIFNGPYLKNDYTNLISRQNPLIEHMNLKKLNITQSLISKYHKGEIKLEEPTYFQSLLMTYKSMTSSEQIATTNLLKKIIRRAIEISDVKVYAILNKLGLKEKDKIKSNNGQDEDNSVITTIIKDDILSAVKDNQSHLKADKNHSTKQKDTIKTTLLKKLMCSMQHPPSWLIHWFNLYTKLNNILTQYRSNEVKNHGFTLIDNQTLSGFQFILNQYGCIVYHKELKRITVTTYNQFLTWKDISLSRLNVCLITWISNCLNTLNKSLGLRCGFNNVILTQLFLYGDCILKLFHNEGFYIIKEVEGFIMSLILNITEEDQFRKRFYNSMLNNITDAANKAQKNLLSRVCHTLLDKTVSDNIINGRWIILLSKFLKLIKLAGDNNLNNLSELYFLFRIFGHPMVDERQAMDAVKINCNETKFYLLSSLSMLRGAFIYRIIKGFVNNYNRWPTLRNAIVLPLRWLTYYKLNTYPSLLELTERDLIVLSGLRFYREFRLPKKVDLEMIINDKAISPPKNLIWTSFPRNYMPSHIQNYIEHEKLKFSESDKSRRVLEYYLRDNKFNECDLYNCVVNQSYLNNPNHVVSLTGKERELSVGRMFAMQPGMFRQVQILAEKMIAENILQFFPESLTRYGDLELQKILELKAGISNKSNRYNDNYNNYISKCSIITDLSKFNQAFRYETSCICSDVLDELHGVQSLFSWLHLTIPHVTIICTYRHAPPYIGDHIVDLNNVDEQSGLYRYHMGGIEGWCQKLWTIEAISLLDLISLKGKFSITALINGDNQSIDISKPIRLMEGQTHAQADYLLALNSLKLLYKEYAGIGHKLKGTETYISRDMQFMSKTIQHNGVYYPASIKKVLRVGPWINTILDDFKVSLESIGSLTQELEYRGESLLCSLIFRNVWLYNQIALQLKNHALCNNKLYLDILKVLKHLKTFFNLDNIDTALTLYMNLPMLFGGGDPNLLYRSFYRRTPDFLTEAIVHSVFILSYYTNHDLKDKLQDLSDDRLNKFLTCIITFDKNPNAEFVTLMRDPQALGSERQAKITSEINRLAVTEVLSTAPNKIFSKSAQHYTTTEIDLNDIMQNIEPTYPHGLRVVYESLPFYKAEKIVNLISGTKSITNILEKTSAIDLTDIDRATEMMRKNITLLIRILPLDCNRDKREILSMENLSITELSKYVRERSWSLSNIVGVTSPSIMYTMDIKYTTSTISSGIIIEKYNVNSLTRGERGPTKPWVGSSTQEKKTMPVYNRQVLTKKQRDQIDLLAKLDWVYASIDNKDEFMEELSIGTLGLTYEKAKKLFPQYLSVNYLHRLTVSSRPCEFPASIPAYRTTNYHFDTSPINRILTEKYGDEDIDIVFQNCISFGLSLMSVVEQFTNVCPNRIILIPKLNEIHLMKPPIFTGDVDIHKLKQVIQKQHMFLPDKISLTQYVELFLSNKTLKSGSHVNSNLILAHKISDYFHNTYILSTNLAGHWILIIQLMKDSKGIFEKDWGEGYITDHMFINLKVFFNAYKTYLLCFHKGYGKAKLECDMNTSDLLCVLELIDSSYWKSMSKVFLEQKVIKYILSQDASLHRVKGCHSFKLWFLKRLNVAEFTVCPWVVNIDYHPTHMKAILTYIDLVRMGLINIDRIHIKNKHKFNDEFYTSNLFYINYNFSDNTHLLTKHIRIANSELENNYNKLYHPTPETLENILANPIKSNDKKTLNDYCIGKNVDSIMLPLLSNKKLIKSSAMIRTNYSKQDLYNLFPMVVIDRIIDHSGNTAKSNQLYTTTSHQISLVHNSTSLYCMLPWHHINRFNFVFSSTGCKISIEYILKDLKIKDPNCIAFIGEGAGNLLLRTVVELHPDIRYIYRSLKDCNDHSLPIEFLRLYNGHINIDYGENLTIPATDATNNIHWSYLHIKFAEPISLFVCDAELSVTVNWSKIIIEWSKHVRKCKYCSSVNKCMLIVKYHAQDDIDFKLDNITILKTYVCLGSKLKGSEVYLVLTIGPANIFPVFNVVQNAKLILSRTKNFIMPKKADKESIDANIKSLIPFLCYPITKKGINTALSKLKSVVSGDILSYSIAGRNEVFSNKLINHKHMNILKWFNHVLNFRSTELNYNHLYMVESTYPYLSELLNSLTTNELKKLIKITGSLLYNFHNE
T1 sequence (P03421 whole entry, further chain): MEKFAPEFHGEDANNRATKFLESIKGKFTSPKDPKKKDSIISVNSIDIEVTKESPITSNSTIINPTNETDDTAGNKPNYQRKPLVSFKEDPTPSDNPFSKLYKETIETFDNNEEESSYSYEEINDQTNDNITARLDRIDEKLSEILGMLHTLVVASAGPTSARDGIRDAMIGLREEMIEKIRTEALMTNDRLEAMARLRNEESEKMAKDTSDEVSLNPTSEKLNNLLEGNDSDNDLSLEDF
Description: RSV ribonucleoprotein (RNP) complexes were prepared from a method modified from Mason at al (1). HEp-2 cells were plated at a density of 7.1×10^4 cells/cm^2 in MEM+10% fetal bovine serum (FBS) and allowed to attach overnight at 37° C. (5% CO2). Following attachment, the cells were infected with RSV A2 (M01=5) in 35 mL MEM+2% FBS. At 20 hours post-infection, the media was replaced with MEM+2% FBS supplemented with 2 μg/mL actinomycin D and returned to 37° C. for one hour. The cells were then washed once with PBS and treated with 35 mL of PBS+250 μg/mL lyso-lecithin for one minute, after which all liquid was aspirated. The cells were harvested by scrapping them into 1.2 mL of buffer A [50 mM TRIS acetate (pH 8.0), 100 mM potassium acetate, 1 mM DTT and 2 μg/mL actinomycin D] and lysed by repeated passage through an 18 gauge needle (10 times). The cell lysate was placed in ice for 10 minutes and then centrifuged at 2400g for 10 minutes at 4° C. The supernatant (S1) was removed and the pellet (P1) was disrupted in 600 uL of Buffer B [10 mM TRIS acetate (pH 8.0), 10 mM potassium acetate and 1.5 mM MgCl2] supplemented with 1% Triton X-100 by repeated passage through an 18 gauge needle (10 times). The resuspended pellet was placed in ice for 10 minutes and then centrifuged at 2400g for 10 minutes at 4° C. The supernatant (S2) was removed and the pellet (P2) was disrupted in 600 uL of Buffer B supplemented with 0.5% deoxycholate and 0.1% Tween 40. The resuspended pellet was placed in ice for 10 minutes and then centrifuged at 2400g for 10 minutes at 4° C. The supernatant (S3) fraction, containing the enriched RSV RNP complexes, was collected and the protein concentration determined by UV absorbance at 280 nm. Aliquoted RSV RNP S3 fractions were stored at −80° C.
Transcription reactions contained 25 μg of crude RSV RNP complexes in 30 μL of reaction buffer [50 mM TRIS-acetate (pH 8.0), 120 mM potassium acetate, 5% glycerol, 4.5 mM MgCl2, 3 mM DTT, 2 mM ethyleneglycol-bis(2-aminoethylether)-tetraacetic acid (EGTA), 50 μg/mL BSA, 2.5 U RNasin (Promega), ATP, GTP, UTP, CTP and 1.5 uCi [α-^32P] NTP (3000 Ci/mmol)]. The radiolabeled nucleotide used in the transcription assay was selected to match the nucleotide analog being evaluated for inhibition of RSV RNP transcription. Cold, competitive NTP was added at a final concentration of one-half its Km (ATP=20 μM, GTP=12.5 μM, UTP=6 μM and CTP=2 μM). The three remaining nucleotides were added at a final concentration of 100 μM.
To determine whether nucleotide analogs inhibited RSV RNP transcription, compounds were added using a 6 step serial dilution in 5-fold increments. Following a 90 minute incubation at 30° C., the RNP reactions were stopped with 350 μL of Qiagen RLT lysis buffer and the RNA was purified using a Qiagen RNeasy 96 kit. Purified RNA was denatured in RNA sample loading buffer (Sigma) at 65° C. for 10 minutes and run on a 1.2% agarose/MOPS gel containing 2M formaldehyde. The agarose gel was dried and exposed to a Storm phosphorimager screen and developed using a Storm phosphorimager (GE Healthcare). The concentration of compound that reduced total radiolabeled transcripts by 50% (IC50) was calculated by non-linear regression analysis of two replicates.

[2] = Cytotoxicity assay in MT-4 cells; assay type: cell-based; details: human, Cell-Titer Glo
Description: The MT-4 cell line was obtained from the NIH AIDS Research and Reference Reagent Program (Germantown, Md.) and cultured in RPMI-1640 medium (Irvine Scientific, Santa Ana, Calif., Cat #9160) supplemented with 10% FBS, 100 units/mL penicillin, 100 units/mL streptomycin, and 2 mM L-Glutamine. The MT-4 cells were passaged twice per week to maintain cell densities below 0.6×10^6 cells/mL. Complete RPMI-1640 media containing 100× concentrations of 3-fold serially diluted compound, ranging from 26 nM to 530 μM, were stamped in quadruplicate into black 384-well plates. After compound addition, 2×10^3 MT-4 cells were added to each well using a MicroFlo liquid dispenser (BioTek, Winooski, Vt.) and the cells were cultured for 5 days at 37° C. in a 5% CO2 incubator. Following the incubation the cells were allowed to equilibrate to 25° C. and cell viability was determined by adding 25 μL of Cell-Titer Glo viability reagent. The mixture was incubated for 10 minutes at 25° C., and the luminescence signal was quantified on a Victor Luminescence plate reader. The CC50 value is defined as the concentration of compound that reduces cell viability by 50% as determined by the Cell-Titer Glo signal. The data were analyzed using Pipeline Pilot Plate Data Analytics Collection software (Version 7.0, Accelrys, San Diego, Calif.). CC50 values were calculated from a non-linear regression analysis using a 4-parameter sigmoidal dose-response equation: Y=Bottom+(Top−Bottom)/(1+10^[(Log CC50−X)*HillSlope]) where the Top and Bottom were fixed at 100% and 0% cell viability, respectively. CC50 values were calculated as the average±standard deviation of 3 independent experiments.

[3] = Cytotoxicity assay in HEp-2 cells; assay type: cell-based; details: human, uninfected HEp-2 cells, CellTiter Glo
Description: Cytotoxicity of tested compounds is determined in uninfected HEp-2 cells in parallel with the antiviral activity using the cell viability reagent in a similar fashion as described before for other cell types (Cihlar et al., Antimicrob Agents Chemother. 2008, 52(2):655-65.). The same protocol as for the determination of antiviral activity is used for the measurement of compound cytotoxicity except that the cells are not infected with RSV. Instead, an uninfected cell mixture at the same density is added at 20 ul/well to plates containing prediluted compounds, also at 100 nl/sample. Assay plates are then incubated for 4 days followed by a cell viability test using the same CellTiter Glo reagent addition and measurement of luminescent readouts. Untreated cell and cells treated at 2 uM puromycin (Sigma, St. Louis, Mo.) serve as 100% and 0% cell viability control, respectively. The percent of cell viability is calculated for each tested compound concentration relative to the 0% and 100% controls and the CC50 value is determined by non-linear regression as a compound concentration reducing the cell viability by 50%.

RSV strain A2 = test: Anti-RSV activity, infectious cytopathic cell protection assay in HEp-2 cells; assay type: cell-based, Respiratory Syncytial Virus (RSV); details: human respiratory syncytial virus
Description: Antiviral activity against RSV is determined using an infectious cytopathic cell protection assay in HEp-2 cells. In this assay, compounds inhibiting viral infection and/or replication produce a cytoprotective effect against the virus-induced cell killing that can be quantified using a cell viability reagent. The techniques used here are novel adaptations of methods described in published literature (Chapman et al., Antimicrob Agents Chemother. 2007, 51(9):3346-53.)
HEp-2 cells are obtained from ATCC (Manassas, VI) and maintained in MEM media supplemented with 10% fetal bovine serum and penicillin/streptomycin. Cells are passaged twice a week and kept at subconfluent stage. Commercial stock of RSV strain A2 (Advanced Biotechnologies, Columbia, Md.) is titered before compound testing to determine the appropriate dilution of the virus stock that generates desirable cytopathic effect in HEp-2 cells.
For antiviral tests, HEp-2 cells are grown in large cell culture flasks to near confluency but not fully so. The compounds to be tested are prediluted in DMSO in 384-well compound dilution plates, either in an 8 or 40 sample per plate standardized dose response format. 3-fold serial dilution increments of each test compound are prepared in the plates and test samples are transferred via acoustic transfer apparatus (Echo, Labcyte) at 100 nl per well into cell culture assay 384-well plates. Each compound dilution is transferred in single or quadruplicate samples into dry assay plates, which are stored until assay is ready to go. The positive and negative controls are laid out in opposite on ends of the plate in vertical blocks (1 column).
Subsequently, an infectious mixture is prepared using an appropriate dilution of virus stock previously determined by titration with cells at a density of 50,000/ml and 20 uL/well is added to test plates w/compounds via automation (uFlow, Biotek). Each plate includes negative and positive controls (16 replicates each) to create 0% and 100% virus inhibition standards, respectively. Following the infection with RSV, testing plates are incubated for 4 days in a 37° C. cell culture incubator. After the incubation, a cell viability reagent, Cell TiterGlo (Promega, Madison, Wis.) is added to the assay plates, which are incubated briefly, and a luminescent readout is measured (Envision, Perkin Elmer) in all the assay plates. The RSV-induced cytopathic effect, percentage inhibition, is determined from the levels of remaining cell viability. These numbers are calculated for each tested concentration relative to the 0% and 100% inhibition controls, and the EC50 value for each compound is determined by non-linear regression as a concentration inhibiting the RSV-induced cytopathic effect by 50%. Various potent anti-RSV tool compounds are used as positive controls for antiviral activity.

SMILES	IC50 [1]	CC50 at 5 days [2]	CC50 at 4 days [3]	further results
C=C[C@]1(COP(=O)(O)OP(=O)(O)OP(=O)(O)O)O[C@@H](c2ccc3c(N)ncnn23)[C@H](F)[C@@H]1O [Example 17, ((2R,3R,4R,5S)-5-(4-aminopyrrolo[2,1-f][1,2,4]triazin-7-yl)-4-fluoro-3-hydroxy-2-vinyltetrahydrofuran-2-yl)methyl tetrahydrogen triphosphate]	0.56 µM	–	–	–
C[C@@]1(F)[C@H](O)[C@@H](COP(=O)(O)OP(=O)(O)OP(=O)(O)O)O[C@H]1c1ccc2c(N)ncnn12 [((2R,3R,4R,5S)-5-(4-aminopyrrolo[2,1-f][1,2,4]triazin-7-yl)-4-fluoro-3-hydroxy-4-methyltetrahydrofuran-2-yl)methyl tetrahydrogen triphosphate, reference compound]	> 100 µM	–	–	–
CC[C@]1(COP(=O)(O)OP(=O)(O)OP(=O)(O)O)O[C@@H](c2ccc3c(N)ncnn23)[C@H](F)[C@@H]1O [Example 18, ((2R,3R,4R,5S)-5-(4-aminopyrrolo[2,1-f][1,2,4]triazin-7-yl)-2-ethyl-4-fluoro-3-hydroxytetrahydrofuran-2-yl)methyl tetrahydrogen triphosphate]	0.42 µM	–	–	–
C[C@@]1(O)[C@H](O)[C@@H](COP(=O)(O)OP(=O)(O)OP(=O)(O)O)O[C@H]1c1ccc2c(N)ncnn12 [((2R,3R,4R,5S)-5-(4-aminopyrrolo[2,1-f][1,2,4]triazin-7-yl)-3,4-dihydroxy-4-methyltetrahydrofuran-2-yl)methyl tetrahydrogen triphosphate, reference compound]	8.5 µM	–	–	–
[N-]=[N+]=N[C@]1(COP(=O)(O)OP(=O)(O)OP(=O)(O)O)O[C@@H](c2ccc3c(N)ncnn23)[C@H](F)[C@@H]1O [Example 27, ((2R,3R,4R,5S)-5-(4-aminopyrrolo[2,1-f][1,2,4]triazin-7-yl)-2-azido-4-fluoro-3-hydroxytetrahydrofuran-2-yl)methyl tetrahydrogen triphosphate]	0.097 µM	–	–	–
C#C[C@]1(COP(=O)(O)OP(=O)(O)OP(=O)(O)O)O[C@@H](c2ccc3c(N)ncnn23)[C@H](F)[C@@H]1O [Example 7, ((2R,3R,4R,5S)-5-(4-aminopyrrolo[1,24][1,2,4]triazin-7-yl)-2-ethynyl-4-fluoro-3-hydroxytetrahydrofuran-2-yl)methyl tetrahydrogen triphosphate]	1 µM	–	–	–
CCOC(=O)[C@H](C)NP(=O)(OC[C@@]1(C#N)O[C@@H](c2ccc3c(N)ncnn23)[C@H](O)[C@@H]1O)Oc1ccccc1 (stereo partly drawn) [Example 35, (2S)-ethyl 2-(((((2R,3S,4R,5S)-5-(4-aminopyrrolo[2,1-f][1,2,4]triazin-7-yl)-2-cyano-3,4-dihydroxytetrahydrofuran-2-yl)methoxy)(phenoxy)phosphoryl)amino) propanoate]	–	47 µM	> 50 µM	EC50 (RSV strain A2; HEp-2, 96 h): 0.34 µM
CC(C)(C)C(=O)SCCOP(=O)(OCCSC(=O)C(C)(C)C)OC[C@@]1(C#N)O[C@@H](c2ccc3c(N)ncnn23)[C@H](F)[C@@H]1O [Example 11, S,S′-2,2′-((((2R,3R,4R,5S)-5-(4-aminopyrrolo[1,2-f][1,2,4]triazin-7-yl)-2-cyano-4-fluoro-3-hydroxytetrahydrofuran-2-yl)methoxy)phosphoryl)bis(oxy)bis(ethane-2,1-diyl)bis(2,2-dimethylpropanethioate)]	–	19.7 µM	42 µM	EC50 (RSV strain A2; HEp-2, 96 h): 1.2 µM
C=C[C@]1(CO)O[C@@H](c2ccc3c(N)ncnn23)[C@H](F)[C@@H]1O [Example 13, (2R,3R,4R,5S)-5-(4-aminopyrrolo[1,2-f][1,2,4]triazin-7-yl)-4-fluoro-2-(hydroxymethyl)-2-vinyltetrahydrofuran-3-ol]	–	> 106 µM	> 100 µM	EC50 (RSV strain A2; 96 h, HEp-2 cells infected with RSV A2, 4 days, Cell TiterGlo, read-out: EC50): 10.5 µM; EC50 (RSV strain A2; HEp-2 anti-RSV activity, read-out: EC50 (HEp-2 anti-RSV activity)): < 100 µM

— patent publication US9388208B2, “Pyrrolo[1,2-f][1,2,4]triazines useful for treating respiratory syncitial virus infections” (Gilead Sciences, Inc., priority 2013, dated 2016)
